According to patent US20190216772A1, “Antioxidant-Containing Food Composition for Use in Enhancing Antiviral Immunity in Companion Animals” (priority 2008, published 2019):

Experiments:
Assay type in all cases: in vivo, dog
CREBBP = experiment: Whole blood gene expression (canine 2 Affymetrix genechip) in dogs fed lipoic acid food for 30 days; settings: dogs fed control food containing 150 ppm alpha-lipoic acid for 30 days vs control food; whole blood RNA
From the text: (§1) Twenty dogs were fed for 30 days. Ten were fed an AAFCO level control food and 10 other dogs were fed the AAFCO level control food containing 150 ppm alpha-lipoic acid. At the end of the end of the 30 days whole blood samples were collected from each dog in Paxgene tubes.
(§2) Total RNAs were isolated from whole blood samples using the PAXgene RNA isolation kit. All measurements were done with the canine 2 Affymetrix genechips. For statistical analysis, all measurements were normalized with RMA. All analysis was preformed using Partek. An ANOVA t-test was performed for genes that are differentially expressed between the control and test foods. (at least a 20% change in expression with a pvalue<0.05)
(§3) Differentially expressed genes were analyzed with the GeneGo pathway analysis software.

EIF2AK2 = experiment: as above; settings: dogs fed control food containing 150 ppm alpha-lipoic acid for 30 days vs control food
From the text: as §1, §2, §3

IFNAR2 = experiment: as above; settings: dogs fed control food containing 150 ppm alpha-lipoic acid for 30 days vs control food; whole blood RNA
From the text: as §1, §2, §3

IFNGR2 = experiment: as above; settings: dogs fed control food containing 150 ppm alpha-lipoic acid for 30 days vs control food; whole blood RNA
From the text: as §1, §2, §3

IFR9 = experiment: as above; settings: dogs fed control food containing 150 ppm alpha-lipoic acid for 30 days vs control food; whole blood RNA
From the text: as §1, §2, §3

JAK2 = experiment: as above; settings: dogs fed control food containing 150 ppm alpha-lipoic acid for 30 days vs control food; whole blood RNA
From the text: as §1, §2, §3

RNASEL = experiment: as above; settings: dogs fed control food containing 150 ppm alpha-lipoic acid for 30 days vs control food; whole blood RNA
From the text: as §1, §2, §3

[1] = tested on: interferon mediated antiviral response; experiment: GeneGo pathway analysis of differentially expressed genes in dogs fed lipoic acid; settings: dogs fed lipoic acid for 30 days; 150 ppm in food
From the text: as §1, §2, §3

## O=C(O)CCCCC1CCSS1 (stereo not drawn) [lipoic acid, alpha-lipoic acid]
CREBBP
  Fold Up-regulated, CREBBP (CREB-binding protein): 1.2 fold
EIF2AK2
  Fold Up-regulated, EIF2AK2 (Interferon-induced double stranded RNA-activated protein): 1.4 fold
IFNAR2
  Fold Up-regulated, IFNAR2 (interferon-alpha/beta receptor beta chain precursor): 1.3 fold
IFNGR2
  Fold Up-regulated, IFNGR2 (interferon-gamma receptor beta chain precursor): 1.2 fold
IFR9
  Fold Up-regulated, IFR9 (interferon regulatory factor 9): 1.3 fold
JAK2
  Fold Up-regulated, JAK2 (Tyrosine protein kinase JAK2): 1.4 fold
RNASEL
  Fold Up-regulated, RNASEL (2-5A-dependent ribonuclease): 1.5 fold
[1]
  interferon mediated antiviral response (pathway analysis of differentially expressed genes): exhibited an interferon mediated antiviral response
